# Tests used:
# [1] = system: ovalbumin-induced broncho-constriction in sensitized guinea pigs; test: In-vivo pulmonary antigen-induced sensitization study (intratracheal pressure); parameters: species or system Male Duncan Hartley derived guinea pigs; conditions: about 30 mg/kg
# Protocol: Prophylactic activity of instant composition against antigen-induced broncho-constriction is tested in sensitized guinea pigs. […] One hour after pretreatment, the guinea pigs are sensitized with intraperitoneal injection of ovalbumin (0.5 μg). A cocktail of Indomethacin (about 10 mg/kg), Mepyramine (about 2 mg/kg) and Propanolol (about 100 mg/kg) is injected about 10 mins before sensitization in order to block other mediators of broncho-blockade. Sensitized animals are anesthetized and artificially ventilated.
# [2] = Heart rate and blood pressure in the pulmonary antigen-induced sensitization study; type: in vivo, Male Duncan Hartley derived guinea pigs; conditions: guinea pigs
# Protocol: Prophylactic activity of instant composition against antigen-induced broncho-constriction is tested in sensitized guinea pigs. Male Duncan Hartley derived guinea pigs (400±50 g) are pretreated with instant composition at dose of about 100 mg/kg of body weight of the subject, administered orally. One hour after pretreatment, the guinea pigs are sensitized with intraperitoneal injection of ovalbumin (0.5 μg). A cocktail of Indomethacin (about 10 mg/kg), Mepyramine (about 2 mg/kg) and Propanolol (about 100 mg/kg) is injected about 10 mins before sensitization in order to block other mediators of broncho-blockade. Sensitized animals are anesthetized and artificially ventilated. […]
structure (smiles),measurement,setting,value
O=C1CCN(c2ccccc2)N1 [Phenidone],ΔITP Before Ovalbumin,[1]; n = 5,0 cm H2O
same,ΔITP After Ovalbumin,"[1]; n = 5, vehicle control 29.3 ± 2.2",2.3 ± 0.3 cm H2O
same,effect on blood pressure,[2]; 5 minutes after administration,reduced blood pressure
same,Blood Pressure,"[2]; measured 5 mins after administration, n = 5, vehicle control 49.4 ± 4.0",34.4 ± 1.9 mm Hg
same,Heart Rate,"[2]; measured 5 mins after administration, n = 5, vehicle control 171.2 ± 3.4",162.4 ± 4.7 beats/minute

# Source: patent US8563601B2, “Method of managing broncho-constrictive condition” (Indus Biotech Private Limited, priority 2010, dated 2013)
